Measurements as given in patent US10463712B2, “Human catestatin induces gut microbiota dysbiosis” (University of Manitoba, priority 2015, dated 2019).
Where no end group is shown, it is not given here.

Experiments:
[1] = tested on: Staphylococcus aureus, group A Streptococcus, Escherichia coli, Pseudomonas aeruginosa, Candida albicans, Aspergillus niger, A. fumigates, Trichophyton rubrum; conditions: gram-positive and gram-negative bacteria, yeasts, filamentous fungi; cited from earlier work
fecal microbiota = test: Fecal microbiota composition by Illumina 16S rRNA sequencing after intrarectal CTS; assay type: in vivo, C57BL/6 mice; conditions: for Mean percentage of sequence in total bacterial population: CTS 1.5 mg/kg/day i.r. 6 days
Procedure: (§1) Male C57BL/6 mice (7-9 weeks old) were purchased from Charles River (Canada) and maintained in the animal care facility at the University of Manitoba. The experimental protocol was approved by the University of Manitoba Animal Ethics Committee (10-073) and the research was conducted according to the Canadian Guidelines for Animal Research. Two groups of 4 and 6 mice were studied, one receiving the vehicle solution and one receiving intra-rectal Infusion of CTS for 6 days.
(§2) Saline (0.9%) was injected in the control group. Mice were anaesthetized using Isoflurane (Abbott, Toronto, Canada).
(§3) Samples were collected 6 days post-treatment induction, after euthanasia under isoflurane (Abbot) anaesthesia. The macroscopic score was determined on the sacrifice day based on stool consistency, rectal prolapse and rectal and colonic bleeding. On the day of sacrifice, a 250 mg fecal sample and a portion of the colon were collected in individual collector tubes from each animal. All samples were preserved at −80° C. before use.
(§4) Colons were opened and 50 mg of scrapings were taken from the inside. Samples were homogenized at room temperature, and genomic DNA was extracted from 250 mg fecal mass using a ZR fecal DNA Kit (Zymo Research Corp., Orange, Calif.). DNA extraction was performed using a Qiagen DNeasy blood & tissue kit (Qiagen corp, Valencia, USA). Both DNA extraction kits have a bead-beating step to lyse microbial cells. To match the concentration requirement for pyrosequencing, DNA quantity was determined using a Beckman DU/800 spectrophotometer (Beckman Coulter, Inc., Fullerton, Calif.). Genomic DNA was normalized to achieve a concentration of 20 ng/μL, and quality-checked by 16S rRNA gene using PCR amplification of 27F (5′-[…]-3′, SEQ ID NO:2) and 342R (5′-[…]-3′, SEQ ID NO:3)^58, 59. Amplicons were verified by agarose gel electrophoresis.
(§5) Library construction and Illumina sequencing were performed as described by Derakhshani et al.^60. Briefly, the […] region of the 16S rRNA gene was targeted for PCR amplification using modified F515/R806 primers^61. A reverse PCR primer was Indexed with 12-base Golay barcodes to allow for sample multiplexing. The PCR reaction for each sample was performed in duplicate and contained 1.0 μl of pre-normalized DNA, 1.0 μl each of forward and reverse primers (10 μM), 12 μl HPLC grade water (Fisher Scientific, ON, Canada) and 10 μl 5 Prime Hot MasterMix® (5 Prime, Inc., Gaithersburg, USA). Reactions consisted of an initial denaturing step at 94° C. for 3 min followed by 35 amplification cycles at 94° C. for 45 sec, 50° C. for 60 sec and 72° C. for 90 sec; this was followed by an extension step at 72° C. for 10 min in an Eppendorf Mastercycler® (Eppendorf, Hamburg, Germany). PCR products were then purified using a ZR-96 DNA Clean-up Kit™ (ZYMO Research, CA, USA) to remove primers, dNTPs and reaction components. The V4 library was then generated by pooling 200 ng of each sample, and quantified using Picogreen dsDNA (Invitrogen, NY, USA). This was followed by multiple dilution steps using pre-chilled hybridization buffer (HT1) (Illumina, CA, USA) to bring the pooled ampilcons to a final concentration of […], and the concentration was measured through optical density using a Qubit® 2.0 Fluorometer (Life technologies, ON, Canada). […] The 150 paired-end sequencing reaction was performed on a MISeq platform (Illumina, CA, USA) at the Gut Microbiome and Large Animal Biosecurity Laboratories, Department of Animal Science, University of Manitoba, Canada.
(§6) Bioinformatics analyses were performed as described by Derakhshani et al.^60. Briefly, the PANDAseq assembler^62 was used to merge overlapping paired-end Illumina fastq files. All the sequences with mismatches or ambiguous calls in the overlapping region were discarded. The output fastq file was then analyzed using downstream computational pipelines in the open source software package QIIME^63.

[2] = tested on: colonic mucosa associated microbiota; test: Colonic mucosa associated microbiota composition by Illumina 16S rRNA sequencing after intrarectal CTS; assay type: in vivo, C57BL/6 mice; conditions: for Mean percentage of sequence in total bacterial population: CTS 1.5 mg/kg/day i.r. 6 days
Procedure: as §1, §2, §3, §4, §5, §6

induced colitis = conditions: Rabbi et al. 2014; cited from earlier work
[3] = fecal samples, R^2=0.94, Q^2=0.57
[4] = colonic mucosa associated samples
[5] = colonic mucosa associated samples, R^2=0.32, Q^2=0.242

For SSMKLSFRARAYGFRGPGPQL [CTS], the “Antimicrobial activity in vitro” value [1] is listed as “effective”, the “E. coli levels in the gut” value (fecal microbiota; CTS administration in vivo) is listed as “not affected” and the “S. aureus levels in the gut” value (fecal microbiota; CTS administration in vivo) is listed as “not affected”. The “Impact on Chao1, ACE, Shanon and Simpson indices of α-diversity” value (fecal microbiota; fecal bacterial community, vs control) was “no significant impact”, the “Effect on Verrucomicrobia” value (fecal microbiota; fecal samples) was “lowered” and the “β-diversity (unweighted UniFrac, PERMANOVA): bacterial community vs controls” value (fecal microbiota; fecal samples, P<0.05) was “clustered separately”. The “PLS-DA association with CTS treatment: Adlercreutzia, Allobaculum, Bacteroidaceae (Family), Clostridia (Class), Ruminococcaceae (Family)” value (fecal microbiota; [3]) was “negative association”, the “PLS-DA association with CTS treatment: Alpharoteobacteria (Class), Bacteroidales (Order), RF32 (Order), mitochondria (Family), YS2 (Order)” value (fecal microbiota; [3]) was “positive association” and the “PLS-DA association with CTS treatment: genera Prevotella, Bacteroides Ovatus, Bacteroides, Parabacteroides distarosis, Parabacteroides and Dorea” value (fecal microbiota; [3]) was “positively associated”. For the same sequence, the “Change of Firmicutes population vs control” value (fecal microbiota; feces, P<0.001) was “significantly decreased”, the “Change of relative abundance of Bacteroidetes vs control” value (fecal microbiota; feces, P<0.05) was “significantly increased” and the “Prevotella, Bacteroides, and Parabacteroides populations” value (fecal microbiota; feces, lower taxonomical level) was “significant increase”. The “Mean percentage of sequence in total bacterial population” value (“Mean percentage of sequence” for short) (fecal microbiota; phylum Actinobacteria, fecal samples) was 0.1877%, the “Mean percentage of sequence” value (fecal microbiota; phylum Bacteroidetes, fecal samples) was 74% and the “Mean percentage of sequence” value (fecal microbiota; phylum Cyanobacteria, fecal samples) was 0.152%. The “Mean percentage of sequence” value (fecal microbiota; phylum Deferribacteres, fecal samples) was 1.144%, the “Mean percentage of sequence” value (fecal microbiota; phylum Fibrobacteres, fecal samples) was 0.000541% and the “Mean percentage of sequence” value (fecal microbiota; phylum Firmicutes, fecal samples) was 20.56%. For the same sequence, the “Mean percentage of sequence” value (fecal microbiota; phylum Proteobacteria, fecal samples) was 2.873%, the “Mean percentage of sequence” value (fecal microbiota; phylum TM7, fecal samples) was 0.003098% and the “Mean percentage of sequence” value (fecal microbiota; phylum Tenericutes, fecal samples) was 0.4046%. The “Mean percentage of sequence” value (fecal microbiota; phylum Unclassified, fecal samples) was 0.4142%, the “Mean percentage of sequence” value (fecal microbiota; phylum Verrucomicrobia, fecal samples) was 0.266% and the “Impact on Chao1, ACE, Shanon and Simpson indices of α-diversity” value ([2]; colonic mucosa associated bacterial community, vs control) was “no significant impact”. For the same sequence, the “Effect on Verrucomicrobia” value [2, 4] was “lowered”, the “Impact on relative abundance of bacterial phyla” value [2, 4] was “no significant impact” and the “β-diversity (PERMANOVA): bacterial community vs controls” value [2, 4] was “no significant change”. For the same sequence, the “PLS-DA association with CTS treatment: Bacteroidales, Chitinophagaceae, Clostridlaceae, Clostridiales, Coriobacteriaceae, Pseudomonadaceae, Rikenellaceae, Ruminococcaceae, YS2” value [2, 5] was “positive association”, the “PLS-DA association with CTS treatment: genera Bifidobacterium and Stenotrophomonas” value [2, 5] was “positive association” and the “Mean percentage of sequence” value ([2]; phylum Acidobacteria, colonic mucosa associated samples) was 0.03339%. The “Mean percentage of sequence” value ([2]; phylum Actinobacteria, colonic mucosa associated samples) was 0.0724%, the “Mean percentage of sequence” value ([2]; phylum Armatimonadetes, colonic mucosa associated samples) was 0.000879% and the “Mean percentage of sequence” value ([2]; phylum Bacteroidetes, colonic mucosa associated samples) was 21.0435%. For the same sequence, the “Mean percentage of sequence” value ([2]; phylum Chlamydiae, colonic mucosa associated samples) was 0.00306%, the “Mean percentage of sequence” value ([2]; phylum Chlorobi, colonic mucosa associated samples) was 0.002098% and the “Mean percentage of sequence” value ([2]; phylum Cyanobacteria, colonic mucosa associated samples) was 0.1752%. The “Mean percentage of sequence” value ([2]; phylum Deferribacteres, colonic mucosa associated samples) was 5.95%, the “Mean percentage of sequence” value ([2]; phylum Fibrobacteres, colonic mucosa associated samples) was 0.01378% and the “Mean percentage of sequence” value ([2]; phylum Firmicutes, colonic mucosa associated samples) was 12.52%. The “Mean percentage of sequence” value ([2]; phylum Lentisphaerae, colonic mucosa associated samples) was 0.00457%, the “Mean percentage of sequence” value ([2]; phylum OD1, colonic mucosa associated samples) was 0.004988% and the “Mean percentage of sequence” value ([2]; phylum OP3, colonic mucosa associated samples) was 0.001604%. The “Mean percentage of sequence” value ([2]; phylum Planctomycetes, colonic mucosa associated samples) was 0.004664%, the “Mean percentage of sequence” value ([2]; phylum Proteobacteria, colonic mucosa associated samples) was 59.17% and the “Mean percentage of sequence” value ([2]; phylum Spirochaetes, colonic mucosa associated samples) was 0.08226%. The “Mean percentage of sequence” value ([2]; phylum TM7, colonic mucosa associated samples) was 0.007409%, the “Mean percentage of sequence” value ([2]; phylum Tenericutes, colonic mucosa associated samples) was 0.3714% and the “Mean percentage of sequence” value ([2]; phylum Unclassified, colonic mucosa associated samples) was 0.2915%. The “Mean percentage of sequence” value ([2]; phylum Verrucomicrobia, colonic mucosa associated samples) was 0.1428% and the “Severity of induced colitis” value (induced colitis) was “less severe induced colitis”.
